12 molecules from patent publication US5808139A (Ligand Pharmaceuticals Incorporated, priority 1994, dated 1998) can be followed below.

In assay [1] the test system is human progesterone receptor altered at the Tau-1 location. The experiment in a line: Co-transfection assay in CV-1 cells, progesterone receptor altered at Tau-1, antagonist activity. It is filed as cell-based. The note with it: for Efficacy (% maximal response relative to RU-486), CV-1 cells: antagonist activity; for IC50: concentration required to reduce the maximal response by 50%, read-out: Potency (IC50), CV-1 cells. From the text: This assay is described in further detail in U.S. Pat. Nos. 4,981,784 and 5,071,773, which are incorporated herein by reference. The co-transfection assay provides a method for identifying functional ligands (either agonists which mimic, or antagonists which inhibit, the effect of hormones) for ligand-responsive receptor proteins.
The co-transfection assay provides a mechanism to evaluate ability of a compound to function as an agonist or antagonist of the activity modulated by an intracellular receptor. The co-transfection assay mimics an in vivo system in the laboratory. In the co-transfection assay, a cloned gene for an intracellular receptor is introduced by transfection (a procedure to induce cells to take up foreign genes) into a background cell substantially devoid of endogenous intracellular receptors. This introduced gene directs the recipient cells to make the intracellular receptor protein. A second gene is also introduced (co-transfected) into the same cells in conjunction with the intracellular receptor gene. This second gene functions as a reporter for the transcription-modulating activity of the target intracellular receptor. The reporter acts as a surrogate for the products normally expressed by a gene under control of the target receptor and its natural hormone.
A preferred reporter gene is one which expresses the firefly enzyme luciferase. The co-transfection assay can detect small molecule agonists or antagonists of target intracellular receptors. Exposing the cells to an agonist ligand increases reporter activity in the transfected cells that can be conveniently measured, reflecting ligand-dependent, intracellular receptor-mediated increases in reporter transcription. To detect antagonists, the co-transfection assay is carried out in the presence of a constant concentration of an agonist known to induce a defined reporter signal. Increasing concentrations of a test antagonist will decrease the reporter signal. The co-transfection assay is therefore useful to detect both agonists and antagonists of specific intracellular receptors. It determines not only whether a compound interacts with a particular intracellular receptor, but also whether this interaction mimics (agonizes) or blocks (antagonizes) the effects of the natural regulatory molecules on target gene expression.
Co-transfected cells are exposed to a medium to which is added the potential ligand that is being evaluated. If the candidate ligand diffuses into the cell and binds to the receptor and the resulting complex functions as an agonist, it binds to the co-transfected reporter gene and initiates transcription. When that gene is one that expresses, for example, luciferase, luciferase is produced which catalyzes a light-emitting reaction with its substrate luciferin. Thus, after cell lysis and the introduction of luciferin, the amount of light produced relative to the concentration of candidate ligand used in the assay provides a measure of the potency and efficacy of the compound tested. Antagonist activity is evaluated by adding the candidate ligand and a known agonist to the co-transfected cells.
The receptor cDNA was introduced in a mammalian expression vector under the control of the Rous Sarcoma virus LTR. […] A reporter vector was also transfected, containing a firefly luciferase gene under the control of the hormone-responsive promoter. […] The level of luciferase activity was then measured in cell extracts. Light emission is directly proportional to the effectiveness of the hormone-receptor complex in activating gene expression.
A total of three replicates per concentration point were tested for each compound, and the EC50 was calculated for each positive response. Both agonist and antagonist activity for each test compound was determined in parallel. […]

Assay [2] deals with progesterone receptor (T47D cells). Description: Antagonist assay in T47D (human breast cancer) cells (Tables 1 and 2). The note with it: for Efficacy (% maximal response relative to RU-486), T47D cells: antagonist activity; for IC50: concentration required to reduce the maximal response by 50%, read-out: Potency (IC50), T47D cells. It is filed as cell-based. From the text:
The functional activities of the cyclocymopol analogues in the human breast cell line, T47D, were also investigated. T47D cells have proven to be a particularly useful model to investigate the molecular actions of sex steroids because they contain endogenous functional receptors for, and respond to, progestins, and their respective antagonists. […] In T47D cells, progestins induce de novo synthesis of a plasma-associated alkaline phosphatase, which has been reported to be similar, if not identical, to the alkaline phosphatase present in the normal breast and human milk. These tests were conducted according to the following illustrative example.
The assay was also run using T47D (human breast cancer) cells.

The target in assay [3] is T1, human progesterone receptor (Homo sapiens, UniProt P06401).
T1 sequence (P06401 1-933): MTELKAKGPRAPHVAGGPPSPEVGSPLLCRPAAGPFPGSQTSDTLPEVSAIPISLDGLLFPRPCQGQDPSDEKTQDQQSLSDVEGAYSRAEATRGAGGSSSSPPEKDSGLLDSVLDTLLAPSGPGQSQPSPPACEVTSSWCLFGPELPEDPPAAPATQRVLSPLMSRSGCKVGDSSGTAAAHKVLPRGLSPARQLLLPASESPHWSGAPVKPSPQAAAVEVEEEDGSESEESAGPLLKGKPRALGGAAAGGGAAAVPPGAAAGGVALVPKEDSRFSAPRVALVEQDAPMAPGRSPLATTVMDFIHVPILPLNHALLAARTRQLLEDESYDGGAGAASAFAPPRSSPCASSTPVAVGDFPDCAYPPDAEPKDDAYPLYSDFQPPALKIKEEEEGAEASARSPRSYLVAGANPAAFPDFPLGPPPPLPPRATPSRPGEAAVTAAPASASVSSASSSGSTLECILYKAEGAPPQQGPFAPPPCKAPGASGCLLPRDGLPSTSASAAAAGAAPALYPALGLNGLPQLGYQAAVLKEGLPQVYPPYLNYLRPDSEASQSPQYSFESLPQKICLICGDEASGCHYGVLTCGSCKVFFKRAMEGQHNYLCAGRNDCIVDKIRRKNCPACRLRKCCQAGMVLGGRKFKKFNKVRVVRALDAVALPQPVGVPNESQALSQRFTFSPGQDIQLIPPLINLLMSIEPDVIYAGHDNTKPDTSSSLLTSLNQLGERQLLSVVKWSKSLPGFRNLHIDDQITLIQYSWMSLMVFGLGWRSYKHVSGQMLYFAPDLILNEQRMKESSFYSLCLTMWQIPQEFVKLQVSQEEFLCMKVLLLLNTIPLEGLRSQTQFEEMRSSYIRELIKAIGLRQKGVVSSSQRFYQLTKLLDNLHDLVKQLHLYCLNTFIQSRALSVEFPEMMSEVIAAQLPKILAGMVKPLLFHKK
The experiment in a line: Progesterone receptor binding (displacement of 3H-progesterone, whole cell extract of transfected CV-1 cells). Also noted: expressed in transfected cells; host or cells: CV-1 cells (calcium phosphate transfection), whole cell extract. The procedure:
These tests were conducted according to the following illustrative example.
CO2 for 40 hours prior to harvest.
After incubation, cells were harvested and washed in phosphate buffered saline. Whole cell receptor extract was prepared by homogenizing the harvested cells in Tris-HCl buffer, pH=7.4, containing 30% glycerol, 1 mM EDTA, 12 mM monothioglycerol, 1 mM PMSF, and 0.5M potassium chloride. The homogenate was incubated at 4° C. for 60 min with resuspension every 10 min. The suspension was centrifuged (105,000×g, 60 min) and the supernatant was collected and flash frozen in liquid nitrogen and stored frozen at -70° C.
To a […] final volume incubation mixture, […] of 7.5% (w/v) dextran-coated charcoal suspension in gelatin phosphate buffer was added. The mixture was vortexed and incubated at 4° C. for 10 min and then centrifuged at 3000 rpm for 10 min. The amount of bound tritiated hormone was determined by liquid scintillation spectrophotometry of an aliquot of the supernatant. […]
(In general: Loss of bound radioactivity is the signal in a displacement assay; it reports binding, not function.)

In general, IC50 refers to the concentration that gives 50% inhibition. As a reminder, the Kd is the constant that tells how readily two partners part at equilibrium. Consider `C=C1C=C[C@@H](C)C(C)(C)[C@@H]1Cc1cc(OC)c(Br)cc1OC(C)=O` (relative stereo) [N, trans-1-Methylidene-6-(2'-acetoxy-4'-bromo-5'-methoxyphenyl)methyl-4,5,5-trimethylcyclohex-2-ene], for which, in assay [1], the “Efficacy (% maximal response relative to RU-486), CV-1 cells” value is reported as 90% and the IC50 was 1000 nM. Also, in assay [2], the “Efficacy (% maximal response relative to RU-486), T47D cells” value was 70% and the IC50 was found to be 325 nM. In assay [3], the Kd worked out at 195 nM.

In the case of `C=C1C[C@H](CCC2OCCO2)CC(C)(C)[C@@H]1Cc1cc(OC)c(Br)cc1O` (relative stereo) [W, cis-1-Methylidene-2-(2'-hydroxy-4'-bromo-5'-methoxyphenyl)methyl-3,3-dimethyl-5-(propanal-1,3-dioxolane)cyclohexane], in assay [1], the “Efficacy (% maximal response relative to RU-486), CV-1 cells” value is reported as 85% and the half-maximal inhibitory concentration (IC50) was found to be 2900 nM. In assay [2], the “Efficacy (% maximal response relative to RU-486), T47D cells” value turned out to be 85% and the 50% inhibitory concentration (IC50) worked out at 380 nM. Also, in assay [3], the dissociation constant Kd was 362 nM.

With `C=C1C[C@H](CCCO)CC(C)(C)[C@@H]1Cc1cc(OC)c(Br)cc1O` (relative stereo) [X, cis-1-Methylidene-2-(2'-hydroxy-4'-bromo-5'-methoxyphenyl)methyl-3,3-dimethyl-5-(3-hydroxypropyl)cyclohexane], in assay [1], the “Efficacy (% maximal response relative to RU-486), CV-1 cells” value was 99% and the IC50 was 1100 nM. Further, in assay [2], the “Efficacy (% maximal response relative to RU-486), T47D cells” value amounted to 84% and the IC50 was 210 nM. Further, in assay [3], the Kd came to 384 nM.

On to `C=C1CCCC(C)(C)C1Cc1cc(OC)c(Br)cc1OC(C)=O` (stereo in doubt) [B, (3S)-1-Debromocyclocymopol monomethyl ether, acetate], for which, in assay [1], the “Efficacy (% maximal response relative to RU-486), CV-1 cells” value is reported as 45% and the 50% inhibitory concentration (IC50) came out at 400 nM. In assay [2], the “Efficacy (% maximal response relative to RU-486), T47D cells” value came out at 65% and the half-maximal inhibitory concentration (IC50) amounted to 85 nM. The equilibrium dissociation constant (Kd) in assay [3] was 35 nM.

For the molecule `C=C1CCCC(C)(C)C1Cc1cc(OC)c(Br)cc1OC(=O)OC` (stereo in doubt) [Compound D, (3S)-1-Debromocyclocymopol monomethyl ether, methyl carbonate], in assay [1], the “Efficacy (% maximal response relative to RU-486), CV-1 cells” value is 45% and the IC50 was 450 nM. In addition, in assay [2], the “Efficacy (% maximal response relative to RU-486), T47D cells” value turned out to be 55% and the IC50 is 150 nM. In addition, the Kd in assay [3] came out at 50 nM.

`C=C1CCCC(C)(C)C1Cc1cc(OC)c(Br)cc1OC(=O)OC` (stereo in doubt) [R, (3R)-1-Debromocyclocymopol monomethyl ether, methyl carbonate]: in assay [1], the “Efficacy (% maximal response relative to RU-486), CV-1 cells” value is 95% and the IC50 is 1220 nM. In assay [2], the “Efficacy (% maximal response relative to RU-486), T47D cells” value was determined as 85% and the IC50 came to 250 nM. Besides, in assay [3], the dissociation constant Kd is 230 nM.

Consider `C=C1CCCC(C)(C)C1Cc1cc(OC)c(Br)cc1OC(=O)c1ccccc1` (stereo in doubt) [U, (3R)-1-Debromocyclocymopol monomethyl ether, benzoate], for which, in assay [1], the “Efficacy (% maximal response relative to RU-486), CV-1 cells” value came to 95% and the IC50 was 1600 nM. In assay [2], the “Efficacy (% maximal response relative to RU-486), T47D cells” value is reported as 80% and the IC50 is 300 nM. For the same molecule, the Kd in assay [3] came out at 190 nM.

Consider `C=C1CCCCC1Cc1cc(OC)c(Br)cc1O` (stereo not drawn) [Compound S, 1-Methylidene-2-(2'-hydroxy-4'-bromo-5'-methoxyphenyl)methylcyclohexane], for which, in assay [1], the “Efficacy (% maximal response relative to RU-486), CV-1 cells” value is reported as 90% and the half-maximal inhibitory concentration (IC50) is 1500 nM. Also, in assay [2], the “Efficacy (% maximal response relative to RU-486), T47D cells” value was found to be 85% and the concentration for half-maximal inhibition (IC50) was determined as 400 nM. Also, the Kd in assay [3] came to 345 nM.

Regarding `COc1cc(CC2C(C)(C)CC(C)=CC23CC3)c(OC(C)=O)cc1Br` (stereo not drawn) [DD, 8-(2'-Acetoxy-4'-bromo-5'-methoxyphenyl)methyl-5,7,7-trimethylspiro[2.5]oct-4-ene], in assay [1], the “Efficacy (% maximal response relative to RU-486), CV-1 cells” value was determined as 26% and the half-maximal inhibitory concentration (IC50) turned out to be 160 nM. Moreover, in assay [2], the “Efficacy (% maximal response relative to RU-486), T47D cells” value came out at 68% and the IC50 is 440 nM. Moreover, the equilibrium dissociation constant (Kd) in assay [3] was 104 nM.

As for `C=C1[C@H](O)C[C@@H](Br)C(C)(C)[C@@H]1Cc1cc(OC)c(Br)cc1O` [E, (3R,5R)-5-Hydroxycyclocymopol monomethyl ether], in assay [1], the “Efficacy (% maximal response relative to RU-486), CV-1 cells” value turned out to be 85% and the IC50 worked out at 450 nM. Moreover, in assay [2], the “Efficacy (% maximal response relative to RU-486), T47D cells” value is recorded as 85% and the IC50 stood at 475 nM. Besides, the Kd in assay [3] was 925 nM.

On to `O=C1CCCCC1Cc1ccc([N+](=O)[O-])cc1` (stereo not drawn) [F, 2-(4'-Nitrophenyl)methylcyclohexan-1-one], for which, in assay [1], the “Efficacy (% maximal response relative to RU-486), CV-1 cells” value was found to be 100% and the concentration for half-maximal inhibition (IC50) was determined as 550 nM. Further, in assay [2], the “Efficacy (% maximal response relative to RU-486), T47D cells” value stood at 80% and the IC50 came to 200 nM. The Kd in assay [3] is 925 nM.

As to `C=C1C=C(C)CC(C)(C)C1Cc1cc(OC)c(Br)cc1OC(C)=O` (stereo not drawn) [H, 1-Methylidene-6-(2'-acetoxy-4'-bromo-5'-methoxyphenyl)methyl-3,5,5-trimethylcyclohex-2-ene], in assay [1], the “Efficacy (% maximal response relative to RU-486), CV-1 cells” value came out at 40% and the IC50 worked out at 700 nM. Also, in assay [2], the “Efficacy (% maximal response relative to RU-486), T47D cells” value was found to be 60% and the IC50 was 775 nM. The equilibrium dissociation constant (Kd) in assay [3] was 60 nM.
